Where a name gives a salt, the structure may show the parent alone.

The experiment concerns the target T1, human GYS1 (glycogen synthase) (Homo sapiens, UniProt P13807).
T1 construct: made in house; host or cells: HEK293T
T1 sequence (P13807 1-737): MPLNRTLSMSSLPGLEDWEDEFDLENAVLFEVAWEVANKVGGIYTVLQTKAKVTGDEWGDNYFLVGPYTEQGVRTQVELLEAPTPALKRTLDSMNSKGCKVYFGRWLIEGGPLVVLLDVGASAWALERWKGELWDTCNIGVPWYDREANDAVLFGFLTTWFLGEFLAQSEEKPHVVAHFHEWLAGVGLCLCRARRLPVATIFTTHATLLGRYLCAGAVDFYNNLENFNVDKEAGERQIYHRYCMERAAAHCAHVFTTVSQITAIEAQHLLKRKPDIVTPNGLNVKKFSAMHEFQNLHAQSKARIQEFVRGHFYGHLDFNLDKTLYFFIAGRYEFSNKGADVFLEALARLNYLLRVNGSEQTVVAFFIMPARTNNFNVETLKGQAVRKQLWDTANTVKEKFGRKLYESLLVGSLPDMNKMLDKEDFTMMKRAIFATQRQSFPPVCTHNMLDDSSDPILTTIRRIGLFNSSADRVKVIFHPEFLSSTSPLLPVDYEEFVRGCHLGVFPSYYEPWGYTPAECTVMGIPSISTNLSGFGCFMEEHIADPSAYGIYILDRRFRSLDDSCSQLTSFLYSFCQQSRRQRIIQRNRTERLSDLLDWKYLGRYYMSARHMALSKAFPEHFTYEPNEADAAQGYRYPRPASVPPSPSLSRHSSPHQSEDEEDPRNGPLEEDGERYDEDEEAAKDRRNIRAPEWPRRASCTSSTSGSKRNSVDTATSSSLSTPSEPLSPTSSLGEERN
Put plainly: Measurement of glycogen synthase activity. The conditions noted are these: concentration causing 50% increase in relative activity; 100% = compound of Example 1 of WO/2011/058154 at 10 μM; 10 mM Glucose-6-phosphate; 37° C. for 25 minutes (Examples 1 to 61 and 67 to 82) or 20 minutes (Examples 62 to 66); absorbance at 340 nm. The format is biochemical. The protocol: A human GYS1 expression plasmid (pCDNA3.1(+)-hGYS1) was constructed by the following method. By using a human skeletal muscle cDNA of Human MTC Panel I (Takara Bio Inc., 636742) as a template, a human GYS1 gene was amplified by a PCR method using cloning primers (Forward Primer: ATGCCTTTAAACCGCAC, Reverse Primer: TTAGTTACGCTCCTCGC). By using the amplified human GYS1 sequence as a template, restriction enzyme sequences were added by a PCR method using sub-cloning primers (Forward Primer: […], and Reverse Primer: […]), and then the human GYS1 gene was introduced between Xho I and Xba I sites of pCDNA3.1(+) (Invitrogen, V790-20).
Glycogen synthase was prepared by the following method. Human kidney-derived HEK293T cells were seeded in a dish (Thermo Fisher Scientific K.K., 168381) by using a 10% FBS-containing DMEM (Nacalai Tesque, Inc., 0845874) medium, and cultured overnight. Then, by using Lipofectamine LTX (Invitrogen, 15338-100), the cells were transfected with the human GYS1 expression vector according to the attached manual. After culturing under conditions of 37° C. and 5% CO2 for 2 days, the resultant was lysed in a lysis buffer (50 mM Tris-HCl (pH 8.0), 10 mM EDTA, 2 mM EGTA, 100 mM NaF, 1 mM PMSF, 1 mM DTT, and 1× Complete (Roche, 1873580)), homogenized, and then centrifuged at 16000×g at 4° C. for 15 minutes. The precipitated fraction re-dissolved by adding the lysis buffer was used as a glycogen synthase for evaluation.
The glycogen synthase activity was measured by the following method. To a polystyrene 96-well plate, solutions each containing 30 mM glycylglycine (pH 7.3), 40 mM KCl, 20 mM MgCl2, 9.2% DMSO containing one of the test compounds at one of various concentrations, and 10 mM Glucose-6-phosphate (Sigma-Aldrich, G7879) were added at 12 μL/well.
Next, a substrate solution containing 30 mM glycylglycine (pH 7.3), 4.3 mg/mL glycogen (Sigma-Aldrich, G8876), 21.6 mM UDP-glucose (Sigma-Aldrich, U4625), 21.6 mM phosphoenolpyruvic acid (Sigma-Aldrich, P0564), and 4.05 mM NADH (Sigma-Aldrich, N8129) was added at 18 μL/well.
Moreover, an enzyme solution containing 50 mM Tris-HCl (pH 8.0), 27 mM DTT (NACALAI TESQUE, INC., 14128-04), 0.2 mg/mL bovine serum albumin, 0.17 mg/mL glycogen synthase, and 1.5 μL pyruvate kinase/lactate dehydrogenase solution (Sigma-Aldrich, P0294) was added at 18 μL/well to prepare reaction solutions. After the reaction solutions were incubated (at 37° C. for 25 minutes for Examples 1 to 61 and 67 to 82 or at 37° C. for 20 minutes for Examples 62 to 66), the absorbance at 340 nm was measured by using Benchmark Plus (Bio-Rad Laboratories, Inc.).
The activity of each test compound was calculated by the following method. The absorbance at 340 nm of the reaction solution containing the compound and DMSO was subtracted from the absorbance at 340 nm of a reaction solution not containing the compound but containing only DMSO to calculate the change (ΔA340) in absorbance. The relative activity (%) of the test compound at each of the various concentrations was calculated, where the ΔA340 of a reaction solution containing the compound of Example 1 of WO/2011/058154 at a final concentration of 10 μM was taken as 100%. EC50 representing the concentration of the compound at which an increase in the relative activity by 50% was caused was calculated using XLfit (idbs).
In turn, `CSc1cc(F)c(F)cc1-c1ccc(OCc2cccc(C(=O)N(CC(=O)O)CC3CCNCC3)c2)cc1` [Example 35, 2-[[3-[[4-(4,5-Difluoro-2-methylsulfanyl-phenyl)phenoxy]methyl]benzoyl]-(4-piperidylmethyl)amino]acetic Acid Trifluoroacetate] displayed an EC50 of 19 nM.

With `CSc1cc(F)c(F)cc1-c1ccc(OCc2cccc(C(=O)N(CC(=O)O)C3CCNCC3)c2)cc1` [Example 36, 2-[[3-[[4-(4,5-Difluoro-2-methylsulfanyl-phenyl)phenoxy]methyl]benzoyl]-(4-piperidyl)amino]acetic Acid Trifluoroacetate], the EC50 was 21 nM.

Regarding `CSc1cc(F)c(F)cc1-c1ccc(OCc2cccc(C(=O)N(CC(=O)O)CC3CCN(C)CC3)c2)cc1` [Example 37, 2-[[3-[[4-(4,5-Difluoro-2-methylsulfanyl-phenyl)phenoxy]methyl]benzoyl]-[(1-methyl-4-piperidyl)methyl]amino]acetic Acid Trifluoroacetate], the EC50 came to 23 nM.

With `CCN1CCC(CN(CC(=O)O)C(=O)c2cccc(COc3ccc(-c4cc(F)c(F)cc4SC)cc3)c2)CC1` [Example 38, 2-[[3-[[4-(4,5-Difluoro-2-methylsulfanyl-phenyl)phenoxy]methyl]benzoyl]-[(1-ethyl-4-piperidyl)methyl]amino]acetic Acid Trifluoroacetate], the EC50 is 19 nM.

`CSc1cc(F)c(F)cc1-c1ccc(OCc2cccc(C(=O)N(CC(=O)O)Cc3cccnc3)c2)cc1` [Example 39, 2-[[3-[[4-(4,5-Difluoro-2-methylsulfanyl-phenyl)phenoxy]methyl]benzoyl]-(3-pyridylmethyl)amino]acetic Acid Trifluoroacetate] showed an EC50 of 21 nM.

The compound `CSc1cc(F)c(F)cc1-c1ccc(OCc2cccc(C(=O)N(CCN3CCCC3)CC(=O)O)c2)cc1` [Example 40, 2-[[3-[[4-(4,5-Difluoro-2-methylsulfanyl-phenyl)phenoxy]methyl]benzoyl]-(2-pyrrolidin-1-ylethyl)amino]acetic Acid Trifluoroacetate] registered an EC50 of 24 nM.

On to `CSc1cc(F)c(F)cc1-c1ccc(OCc2cccc(C(=O)N(CCN3CCS(=O)(=O)CC3)CC(=O)O)c2)cc1` [Example 41, 2-[[3-[[4-(4,5-Difluoro-2-methylsulfanyl-phenyl)phenoxy]methyl]benzoyl]-[2-(1,1-dioxo-1,4-thiazinan-4-yl)ethyl]amino]acetic Acid Trifluoroacetate], for which the EC50 was found to be 21 nM.

`CSc1cc(F)c(F)cc1-c1ccc(OCc2cccc(C(=O)N(CC(=O)O)Cc3ncco3)c2)cc1` [Example 42, 2-[[3-[[4-(4,5-Difluoro-2-methylsulfanyl-phenyl)phenoxy]methyl]benzoyl]-(oxazol-2-ylmethyl)amino]acetic Acid] displayed an EC50 of 19 nM.

Compound `CCNCCN(CC(=O)O)C(=O)c1cccc(COc2ccc(-c3cc(F)c(F)cc3SC)cc2)c1` [Example 43, 2-[[3-[[4-(4,5-Difluoro-2-methylsulfanyl-phenyl)phenoxy]methyl]benzoyl]-[2-(ethylamino)ethyl]amino]acetic Acid Trifluoroacetate] registered an EC50 of 19 nM.

Consider `CSc1cc(F)c(F)cc1-c1ccc(OCc2cccc(C(=O)N(CCNC(C)=O)CC(=O)O)c2)cc1` [Example 44, 2-[2-Acetamidoethyl-[3-[[4-(4,5-difluoro-2-methylsulfanyl-phenyl)phenoxy]methyl]benzoyl]amino]acetic Acid], for which the EC50 was found to be 25 nM.

`COC(C)CN(CC(=O)O)C(=O)c1cccc(COc2ccc(-c3cc(F)c(F)cc3SC)cc2)c1` (stereo not shown) [Example 45, 2-[[3-[[4-(4,5-Difluoro-2-methylsulfanyl-phenyl)phenoxy]methyl]benzoyl]-(2-methoxypropyl)amino]acetic Acid]: the EC50 is 7.7 nM.

As to `CSc1cc(F)c(F)cc1-c1ccc(OCc2cccc(C(=O)N(CC(=O)O)CC3CCS(=O)(=O)C3)c2)cc1` (stereo not shown) [Example 46, 2-[[3-[[4-(4,5-Difluoro-2-methylsulfanyl-phenyl)phenoxy]methyl]benzoyl]-[(1,1-dioxothiolan-3-yl)methyl]amino]acetic Acid], the EC50 was 25 nM.

Take `CSc1cc(F)c(F)cc1-c1ccc(OCc2cccc(C(=O)N(CC(=O)O)Cc3cnco3)c2)cc1` [Example 47, 2-[[3-[[4-(4,5-Difluoro-2-methylsulfanyl-phenyl)phenoxy]methyl]benzoyl]-(oxazol-5-ylmethyl)amino]acetic Acid]: the EC50 was 18 nM.

For `CSc1cc(F)c(F)cc1-c1ccc(OCc2cccc(C(=O)N(CC(=O)O)[C@H]3CC[C@@H](N)CC3)c2)cc1` [Example 48, 2-[(4-Aminocyclohexyl)-[3-[[4-(4,5-difluoro-2-methylsulfanyl-phenyl)phenoxy]methyl]benzoyl]amino]acetic Acid Trifluoroacetate], the EC50 was 13 nM.

In turn, `COCCOCCN(CC(=O)O)C(=O)c1cccc(COc2ccc(-c3cc(F)c(F)cc3SC)cc2)c1` [Example 49, 2-[[3-[[4-(4,5-Difluoro-2-methylsulfanyl-phenyl)phenoxy]methyl]benzoyl]-[2-(2-methoxyethoxy)ethyl]amino]acetic Acid] came in with an EC50 of 9.5 nM.

`CSc1cc(F)c(F)cc1-c1ccc(OCc2cccc(C(=O)N(CC(=O)O)CC3CCCNC3)c2)cc1` (stereo not shown) [Example 50, 2-[[3-[[4-(4,5-Difluoro-2-methylsulfanyl-phenyl)phenoxy]methyl]benzoyl]-(3-piperidylmethyl)amino]acetic Acid Trifluoroacetate] displayed an EC50 of 6.3 nM.

On to `CSc1cc(F)c(F)cc1-c1ccc(OCc2cccc(C(=O)N(CCS(N)(=O)=O)CC(=O)O)c2)cc1` [Example 51, 2-[[3-[[4-(4,5-Difluoro-2-methylsulfanyl-phenyl)phenoxy]methyl]benzoyl]-(2-sulfamoylethyl)amino]acetic Acid], for which the EC50 amounted to 5.2 nM.

`CSc1cc(F)c(F)cc1-c1ccc(OCc2cccc(C(=O)N(CC(=O)O)Cc3cocn3)c2)cc1` [Example 52, 2-[[3-[[4-(4,5-Difluoro-2-methylsulfanyl-phenyl)phenoxy]methyl]benzoyl]-(oxazol-4-ylmethyl)amino]acetic Acid] returned an EC50 of 4.4 nM.

`CSc1cc(F)c(F)cc1-c1ccc(OCc2cccc(C(=O)N(CC(=O)O)Cc3ccncn3)c2)cc1` [Example 53, 2-[[3-[[4-(4,5-Difluoro-2-methylsulfanyl-phenyl)phenoxy]methyl]benzoyl]-(pyrimidin-4-ylmethyl)amino]acetic Acid] yielded an EC50 of 7.9 nM.

Values taken from patent publication US20160046592A1, “PHARMACEUTICAL COMPOSITION FOR THE TREATMENT OF DIABETES” (Ajinomoto Co., Inc., priority 2013, published 2016).
